According to US20090270477A1, “POLYMORPHS OF A HYDROISOINDOLINE TACHYKININ RECEPTOR ANTAGONIST” (priority 2006, published 2009):

Assay: Relative thermodynamic stability of the two anhydrous crystalline forms (enantiotropic pair)
Assay type: physicochemical
Details: freebase of compound of structural formula A; Form I and Form II are enantiotropic

| Compound | temperatures at which the form is thermodynamically more stable |
| --- | --- |
| C[C@@H](O[C@H]1CC[C@@H]2CN(C3=CC(=O)CC3)C[C@H]2[C@@H]1c1ccc(F)cc1)c1cc(C(F)(F)F)cc(C(F)(F)F)c1 [Form II] | above 72 °C |
| C[C@@H](O[C@H]1CC[C@@H]2CN(C3=CC(=O)CC3)C[C@H]2[C@@H]1c1ccc(F)cc1)c1cc(C(F)(F)F)cc(C(F)(F)F)c1 [Form I] | below 72 °C |
